Source: patent publication US20050208496A1, “Methods of testing for bronchial asthma or chronic obstructive pulmonary disease” (Genox Research, Inc., priority 2002, published 2005)

System: mouse counterpart genes
Assay: Mouse GeneChip (MG-U74A to MG-U74C) analysis of lung and trachea of the OVA antigen-exposed bronchial hypersensitivity model, S-Sal group versus S-OVA group
Assay type: in vivo
[1] = S-Sal group versus S-OVA group, MG-U74 chip A, 1st
[2] = S-Sal group versus S-OVA group, MG-U74 chip A, 2nd
[3] = S-Sal group versus S-OVA group, MG-U74 chip A, 3rd
[4] = S-Sal group versus S-OVA group, MG-U74 chip B, 1st
[5] = S-Sal group versus S-OVA group, MG-U74 chip B, 2nd
[6] = S-Sal group versus S-OVA group, MG-U74 chip B, 3rd
[7] = S-Sal group vs S-OVA group, 1st, chip A, P/A call A
[8] = S-Sal group vs S-OVA group, 1st, chip A, P/A call P
[9] = S-Sal group vs S-OVA group, 1st, chip B, P/A call A
[10] = S-Sal group vs S-OVA group, 1st, chip B, P/A call P
[11] = S-Sal group vs S-OVA group, 1st, chip C, P/A call P
[12] = S-Sal group vs S-OVA group, 2nd, chip A, P/A call A
[13] = S-Sal group vs S-OVA group, 2nd, chip A, P/A call P
[14] = S-Sal group vs S-OVA group, 2nd, chip B, P/A call A
[15] = S-Sal group vs S-OVA group, 2nd, chip B, P/A call P
[16] = S-Sal group vs S-OVA group, 2nd, chip C, P/A call P
[17] = S-Sal group vs S-OVA group, 3rd, chip A, P/A call A

Substance: ovalbumin [OVA antigen, ovalbumin antigen used for sensitization and inhalation to induce bronchial hypersensitivity in mice]
- Fold Change 1st, contactin 1 (mouse Probe ID 92936_at) [1]: 1.3
- Fold Change 1st, lectin, galactose binding, soluble 1 (mouse Probe ID 99669_at) [1]: 1.6
- Fold Change 1st, peptidyl arginine deiminase, type I (mouse Probe ID 95343_at) [1]: 1.3
- Fold Change 1st, peptidyl arginine deiminase, type III (mouse Probe ID 103803_at) [1]: 2.2
- Fold Change 2nd, contactin 1 (mouse Probe ID 92936_at) [2]: 1.9
- Fold Change 2nd, lectin, galactose binding, soluble 1 (mouse Probe ID 99669_at) [2]: 2
- Fold Change 2nd, peptidyl arginine deiminase, type I (mouse Probe ID 95343_at) [2]: 0.83
- Fold Change 2nd, peptidyl arginine deiminase, type III (mouse Probe ID 103803_at) [2]: 1.4
- Fold Change 3rd, contactin 1 (mouse Probe ID 92936_at) [3]: 0.44
- Fold Change 3rd, lectin, galactose binding, soluble 1 (mouse Probe ID 99669_at) [3]: 1.3
- Fold Change 3rd, peptidyl arginine deiminase, type I (mouse Probe ID 95343_at) [3]: 0.67
- Fold Change 3rd, peptidyl arginine deiminase, type III (mouse Probe ID 103803_at) [3]: 1.5
- Fold Change 1st, aquaporin 5 (mouse Probe ID 113916_at) [4]: 0.77
- Fold Change 1st, contactin 1 (mouse Probe ID 105826_at) [4]: 0.83
- Fold Change 1st, contactin 1 (mouse Probe ID 164059_f_at) [4]: 1.7
- Fold Change 2nd, aquaporin 5 (mouse Probe ID 113916_at) [5]: 0.83
- Fold Change 2nd, contactin 1 (mouse Probe ID 105826_at) [5]: 1
- Fold Change 2nd, contactin 1 (mouse Probe ID 164059_f_at) [5]: 0.91
- Fold Change 3rd, aquaporin 5 (mouse Probe ID 113916_at) [6]: 0.59
- Fold Change 3rd, contactin 1 (mouse Probe ID 105826_at) [6]: 1.1
- Fold Change 3rd, contactin 1 (mouse Probe ID 164059_f_at) [6]: 0.77
- Fold Change 1st, contactin 1 (mouse Probe ID 170177_r_at) (S-Sal group versus S-OVA group, MG-U74 chip C, 1st): 0.67
- Fold Change 2nd, contactin 1 (mouse Probe ID 170177_r_at) (S-Sal group versus S-OVA group, MG-U74 chip C, 2nd): 1.1
- Fold Change 3rd, contactin 1 (mouse Probe ID 170177_r_at) (S-Sal group versus S-OVA group, MG-U74 chip C, 3rd): 1.5
- Fold Change, AXL receptor tyrosine kinase (mouse probe 99136_at) [7]: 0.357
- Fold Change, claudin 4 (mouse probe 101410_at) [7]: 1.8
- Fold Change, histocompatibility-2 complex class I-like sequence (mouse probe 101433_at) [7]: 0.526
- Fold Change, interferon gamma inducible protein 30 (mouse probe 97444_at) [7]: 1.3
- Fold Change, interleukin 1 receptor-like 1 (mouse probe 98500_at) [7]: 1.3
- Fold Change, low density lipoprotein receptor-related protein associated protein 1 (mouse probe 161988_f_at) [7]: 1.3
- Fold Change, matrix metalloproteinase 7 (mouse probe 92917_at) [7]: 2.3
- Fold Change, met proto-oncogene (mouse probe 100309_at) [7]: 0.667
- Fold Change, phosphotidylinositol transfer protein, beta (mouse probe 102697_at) [7]: 0.303
- Fold Change, A kinase anchor protein 2 (mouse probe 101435_at) [8]: 0.833
- Fold Change, DNA segment. Chr 16. ERATO Doi 269, expressed (mouse probe 97822_at) [8]: 1
- Fold Change, DNA segment. Chr 16. ERATO Doi 269, expressed (mouse probe 97823_g_at) [8]: 1.1
- Fold Change, arachidonate 15-lipoxygenase (mouse probe 98758_at) [8]: 1.1
- Fold Change, cholesterol 25-hydroxylase (mouse probe 104509_at) [8]: 1.1
- Fold Change, claudin 5 (mouse probe 104516_at) [8]: 1.1
- Fold Change, decay accelerating factor 1 (mouse probe 103617_at) [8]: 1.2
- Fold Change, interferon-stimulated protein (20 kDa) (mouse probe 103432_at) [8]: 1
- Fold Change, low density lipoprotein receptor-related protein associated protein 1 (mouse probe 100086_at) [8]: 1.1
- Fold Change, membrane-associated protein 17 (mouse probe 96935_at) [8]: 1
- Fold Change, phosphotidylinositol transfer protein, beta (mouse probe 102696_s_at) (S-Sal group vs S-OVA group, 1st, chip A, P/A call P, counterpart of human probe 353_at): 1.3
- Fold Change, phosphotidylinositol transfer protein, beta (mouse probe 102696_s_at) (S-Sal group vs S-OVA group, 1st, chip A, P/A call P, counterpart of human probe 35017_f_at): 1.3
- Fold Change, histocompatibility 2, Q region locus 7 (mouse probe 98438_f_at) (S-Sal group vs S-OVA group, 1st, chip A, P/A call P, counterpart of human probe 37420_i_at): 1.3
- Fold Change, histocompatibility 2, Q region locus 7 (mouse probe 98438_f_at) (S-Sal group vs S-OVA group, 1st, chip A, P/A call P, counterpart of human probe 37421_f_at): 1.3
- Fold Change, A kinase (PRKA) anchor protein 10 (mouse probe 163162_at) [9]: 0.5
- Fold Change, ESTs Putative Ortholog of ISG-54K gene (mouse probe 164273_at) [9]: 1
- Fold Change, ESTs, Highly similar to AF116721 8 PRO0907 [H. sapiens] (mouse probe 114151_at) [9]: 1
- Fold Change, neurotrophic tyrosine kinase, receptor type 1 (mouse probe 110116_at) [9]: 2.5
- Fold Change, secreted end transmembrane 1 (mouse probe 115133_at) [9]: 0.435
- Fold Change, MP and activin membrane-bound inhibitor, homolog (Xanopus laevis) (mouse probe 162531_at) [10]: 1
- Fold Change, decay accelerating factor 1 (mouse probe 107626_at) [10]: 1.3
- Fold Change, viral hemorrhagic septicemia virus(VHSV) induced gene 1 (mouse probe 109385_at) [10]: 0.769
- Fold Change, cholesterol 25-hydroxylase (mouse probe 133666_at) (S-Sal group vs S-OVA group, 1st, chip C, P/A call A): 0.588
- Fold Change, deleted in bladder cancer chromosome region candidate 1 (human) Putative Ortholog (mouse probe 166806_at) [11]: 1.4
- Fold Change, interferon-induced protein with tetratricopeptide repeats 1 (mouse probe 168299_f_at) [11]: 1.3
- Fold Change, interleukin 1 receptor-like 1 (mouse probe 98501_at) (S-Sal group vs S-OVA group, 2nd, chip A): 1.8
- Fold Change, AXL receptor tyrosine kinase (mouse probe 99136_at) [12]: 0.476
- Fold Change, a disintegrin and metalloprotease domain 8 (mouse probe 103024_at) [12]: 3.4
- Fold Change, claudin 4 (mouse probe 101410_at) [12]: 3.4
- Fold Change, histocompatibility-2 complex class I-like sequence (mouse probe 101433_at) [12]: 0.625
- Fold Change, interferon gamma inducible protein 30 (mouse probe 97444_at) [12]: 1.9
- Fold Change, matrix metalloproteinase 7 (mouse probe 92917_at) [12]: 1.6
- Fold Change, met proto-oncogene (mouse probe 100309_at) [12]: 1
- Fold Change, phosphotidylinositol transfer protein, beta (mouse probe 102697_at) [12]: 0.333
- Fold Change, matrix metalloproteinase 7 (mouse probe 162318_r_at) (S-Sal group vs S-OVA group, 2nd, chip A, P/A call M): 1.7
- Fold Change, A kinase anchor protein 2 (mouse probe 101435_at) [13]: 0.833
- Fold Change, DNA segment. Chr 16. ERATO Doi 269, expressed (mouse probe 97821_at) [13]: 1
- Fold Change, DNA segment. Chr 16. ERATO Doi 269, expressed (mouse probe 97823_g_at) [13]: 1.1
- Fold Change, arachidonate 15-lipoxygenase (mouse probe 98758_at) [13]: 3.5
- Fold Change, cholesterol 25-hydroxylase (mouse probe 104509_at) [13]: 3.1
- Fold Change, claudin 5 (mouse probe 104516_at) [13]: 1.2
- Fold Change, decay accelerating factor 1 (mouse probe 103617_at) [13]: 1.5
- Fold Change, interferon-stimulated protein (20 kDa) (mouse probe 103432_at) [13]: 1.2
- Fold Change, interleukin 1 receptor-like 1 (mouse probe 98500_at) [13]: 3.4
- Fold Change, polycystic kidney disease 2 (mouse probe 100951_at) [13]: 0.667
- Fold Change, phosphotidylinositol transfer protein, beta (mouse probe 102696_s_at) (S-Sal group vs S-OVA group, 2nd, chip A, P/A call P, counterpart of human probe 353_at): 1
- Fold Change, phosphotidylinositol transfer protein, beta (mouse probe 102696_s_at) (S-Sal group vs S-OVA group, 2nd, chip A, P/A call P, counterpart of human probe 35017_f_at): 1
- Fold Change, histocompatibility 2, Q region locus 7 (mouse probe 98438_f_at) (S-Sal group vs S-OVA group, 2nd, chip A, P/A call P, counterpart of human probe 37420_i_at): 1.4
- Fold Change, histocompatibility 2, Q region locus 7 (mouse probe 98438_f_at) (S-Sal group vs S-OVA group, 2nd, chip A, P/A call P, counterpart of human probe 37421_f_at): 1.4
- Fold Change, ESTs Putative Ortholog of ISG-54K gene (mouse probe 164273_at) [14]: 1
- Fold Change, ESTs, Highly similar to AF116721 8 PRO0907 [H. sapiens] (mouse probe 114151_at) [14]: 1.2
- Fold Change, decay accelerating factor 1 (mouse probe 164905_r_at) [14]: 1
- Fold Change, neurotrophic tyrosine kinase, receptor type 1 (mouse probe 110116_at) [14]: 1.2
- Fold Change, secreted end transmembrane 1 (mouse probe 115133_at) [14]: 0.5
- Fold Change, decay accelerating factor 1 (mouse probe 107626_at) [15]: 1.6
- Fold Change, interferon gamma inducible protein 30 (mouse probe 164423_at) [15]: 4
- Fold Change, viral hemorrhagic septicemia virus(VHSV) induced gene 1 (mouse probe 109385_at) [15]: 1.7
- Fold Change, deleted in bladder cancer chromosome region candidate 1 (human) Putative Ortholog (mouse probe 166806_at) [16]: 1.5
- Fold Change, interferon-induced protein with tetratricopeptide repeats 1 (mouse probe 168299_f_at) [16]: 1.1
- Fold Change, interleukin 1 receptor-like 1 (mouse probe 98501_at) (S-Sal group vs S-OVA group, 3rd, chip A): 1
- Fold Change, AXL receptor tyrosine kinase (mouse probe 99136_at) [17]: 0.25
- Fold Change, a disintegrin and metalloprotease domain 28 (mouse probe 101723_r_at) [17]: 1.8
- Fold Change, histocompatibility-2 complex class I-like sequence (mouse probe 101433_at) [17]: 0.833
